Reference: article PMC10222209 (Pharmaceuticals, 2023)
Like-named read-outs stand apart in the source and are kept apart here.

What was measured:
AR-full length (AR-FL) = target: T1, AR-full length (AR-FL) (Homo sapiens, UniProt P10275, T878A); assay: AR downregulation in LNCaP95 cells (automated Western, Wes); conditions: for downregulating the AR-FL, in words: LNCaP95; for DC50: read-out: AR Downregulation IC50, LNCaP95, 24 h treatment
T1 sequence (P10275 1-920 T878A): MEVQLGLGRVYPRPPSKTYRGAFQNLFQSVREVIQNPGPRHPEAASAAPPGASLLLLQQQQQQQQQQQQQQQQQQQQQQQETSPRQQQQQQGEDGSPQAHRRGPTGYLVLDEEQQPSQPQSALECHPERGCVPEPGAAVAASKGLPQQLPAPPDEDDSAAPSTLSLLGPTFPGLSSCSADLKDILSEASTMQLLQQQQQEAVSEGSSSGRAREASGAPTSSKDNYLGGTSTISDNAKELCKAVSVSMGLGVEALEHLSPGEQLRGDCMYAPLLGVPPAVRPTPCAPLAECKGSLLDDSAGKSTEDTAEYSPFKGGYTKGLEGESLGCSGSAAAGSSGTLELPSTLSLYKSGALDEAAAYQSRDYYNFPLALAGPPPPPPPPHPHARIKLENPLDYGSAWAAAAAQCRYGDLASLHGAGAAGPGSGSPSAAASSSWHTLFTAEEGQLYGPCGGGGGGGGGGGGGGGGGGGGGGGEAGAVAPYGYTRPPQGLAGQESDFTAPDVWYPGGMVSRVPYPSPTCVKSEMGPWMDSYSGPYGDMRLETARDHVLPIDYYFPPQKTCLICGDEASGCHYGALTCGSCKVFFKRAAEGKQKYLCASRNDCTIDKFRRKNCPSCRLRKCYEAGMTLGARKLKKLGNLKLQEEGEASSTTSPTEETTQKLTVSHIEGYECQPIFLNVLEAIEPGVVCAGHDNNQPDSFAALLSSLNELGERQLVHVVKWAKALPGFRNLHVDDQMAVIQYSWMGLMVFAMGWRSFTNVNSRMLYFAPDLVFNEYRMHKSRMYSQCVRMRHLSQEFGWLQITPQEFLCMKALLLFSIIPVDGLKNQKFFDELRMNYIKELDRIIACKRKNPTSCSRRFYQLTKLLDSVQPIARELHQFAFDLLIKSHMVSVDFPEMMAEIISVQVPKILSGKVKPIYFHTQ
Method: (§2) Total AR and AR-V7 protein levels were determined using automated Western blotting (Wes Simple Western Analysis, ProteinSimple, San Jose, CA, USA). WES analyses were performed following the WES user manual. Briefly, LNCaP95 and 22RV1 cells were plated in a 12-well plate at a density of 2.5 × 10^5 cells per well. […] Samples were mixed with a master mix (ProteinSimple, San Jose, CA, USA) to give a final concentration of 0.2 mg/mL total protein, 1 × sample buffer, 1 × fluorescent molecular weight markers, and 40 mM DTT. Samples were heated at 95 °C for 5 min followed by centrifugation. Samples, blocking solution, primary antibodies, horseradish peroxidase-conjugated secondary antibodies, chemiluminescent substrate, and separation and stacking matrices were loaded into designated wells in a 384 well plate. After plate loading, fully automated electrophoresis and immunodetection took place in the capillary system. Proteins were separated by molecular weight at 375 V for 25 min, and primary and secondary antibodies were incubated for 30 min. The AR (Santa Cruz, Santa Cruz, CA, USA), AR-V7 (Santa Cruz, Santa Cruz, CA, USA), and actin (Novus, cat #NB600-503) antibodies were diluted in a proprietary antibody diluent at a 1:50 dilution ratio. Chemiluminescence was captured by a charge-coupled device camera, and the digital image was analyzed using Compass software 6.2.0 (ProteinSimple). The amount of each protein, relative to total protein content, was calculated based on peak areas. Total AR and AR-V7 levels were normalized to actin.

AR-V7 [1] = target: T2, AR-V7 (Homo sapiens, UniProt P10275); assay: AR-V7 downregulation in LNCaP95 cells (automated Western, Wes); conditions: for downregulating the AR-V7, in words: LNCaP95; for DC50: read-out: AR-V7 Downregulation IC50, LNCaP95, 24 h treatment
T2 sequence (P10275 1-644 isoform P10275-3): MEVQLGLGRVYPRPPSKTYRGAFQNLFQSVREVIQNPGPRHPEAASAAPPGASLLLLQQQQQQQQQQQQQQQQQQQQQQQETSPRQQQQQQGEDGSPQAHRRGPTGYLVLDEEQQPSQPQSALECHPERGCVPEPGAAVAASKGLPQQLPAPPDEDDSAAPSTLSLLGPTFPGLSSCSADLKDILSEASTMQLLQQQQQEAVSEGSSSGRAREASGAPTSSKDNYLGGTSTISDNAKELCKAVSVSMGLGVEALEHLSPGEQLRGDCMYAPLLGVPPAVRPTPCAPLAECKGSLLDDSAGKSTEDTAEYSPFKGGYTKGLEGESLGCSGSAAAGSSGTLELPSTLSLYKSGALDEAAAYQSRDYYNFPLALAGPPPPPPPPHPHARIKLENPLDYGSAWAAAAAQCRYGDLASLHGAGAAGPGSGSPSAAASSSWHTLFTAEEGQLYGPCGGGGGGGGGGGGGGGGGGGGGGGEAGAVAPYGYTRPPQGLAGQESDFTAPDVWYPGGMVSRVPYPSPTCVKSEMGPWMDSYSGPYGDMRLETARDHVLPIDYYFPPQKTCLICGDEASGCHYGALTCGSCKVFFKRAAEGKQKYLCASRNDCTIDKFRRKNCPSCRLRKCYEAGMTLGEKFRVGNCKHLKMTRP
Method: as §2

22RV1 cells = assay: Antiproliferative assay (resazurin, 72 h) in 22RV1 cells; type: cell-based; conditions: for inhibition at 1 µM / IC50: Homo sapiens; for antiproliferative activity, in words: enzalutamide-resistant cell lines LNCaP95 and 22RV1, SAR statements
Method: (§1) 22Rv1 cells were obtained from ATCC. LNCaP95 cells were provided by Dr. Yan Dong’s laboratory (Tulane University School of Medicine). LNCaP95 cells were maintained in an RPMI1640 medium with charcoal-stripped serum (CSS). 22Rv1 cells were maintained in an RPMI1640 medium with 10% FBS. Cells were seeded in 96-well plates (5 × 10^3 cells/well) containing a 50 μL growth medium for 24 h. After medium removal, a 100 μL fresh medium containing individual compounds at different concentrations was added to each well and incubated at 37 °C for 72 h. Then, 20 μL of resazurin was added for 2 h before recording fluorescence at 560 nm (excitation) and 590 nm (emission) using a Victor microtiter plate fluorometer (Perkin-Elmer, Waltham, MA, USA).

LNCaP95 cells = assay: Antiproliferative assay (resazurin, 72 h) in LNCaP95 cells; type: cell-based
Method: as §1

AR-V7 [2] = target: T2, AR-V7; assay: AR-V7 downregulation in 22RV1 cells (automated Western, Wes); conditions: read-out: AR-V7 Downregulation IC50; 22RV1, 24 h treatment
Method: as §2

[3] = 22RV1, 1.0 μM, read-out: Inhibitory Rate 22RV1 @1.0 μM
[4] = antiproliferation, 22RV1, 72 h, mean of three independent experiments, read-out: IC50 (μM) 22RV1
[5] = observed, −log IC50, 22RV1 antiproliferation, read-out: Obs pIC50 (converted)
[6] = LNCaP-95, antiproliferation, LNCaP95, 72 h, mean of three independent experiments, read-out: IC50 (μM) LNCaP95

| downregulating the AR-FL, in words (AR-full length (AR-FL)) | DC50 (AR-full length (AR-FL)) | downregulating the AR-V7, in words (AR-V7 [1]) | DC50 (AR-V7 [1]) | IC50 (22RV1 cells; [4]) | IC50 (22RV1 cells; [5]) | IC50 (LNCaP95 cells; [6]) | DC50 (AR-V7 [2]) | IC50 (22RV1 cells; 22Rv1, antiproliferation, approximate value, read-out: IC50 in 22RV1 (text)) | IC50 (LNCaP95 cells; LNCaP-95, antiproliferation, approximate value, read-out: IC50 in LNCaP95 (text)) | Structure (SMILES) | inhibition at 1 µM (22RV1 cells; [3]) | antiproliferative activity, in words (22RV1 cells) | IC50 (22RV1 cells; 22Rv1, 72 h, read-out: IC50 (μM) 22RV1) | inhibition at 1 µM (22RV1 cells; 22Rv1, read-out: Inhibitory Rate 22RV1 @1.0 μM) | IC50 (22RV1 cells; 22Rv1, read-out: Obs pIC50 (converted)) | IC50 (LNCaP95 cells; LNCaP-95, 72 h, read-out: IC50 (μM) LNCaP95) |
| --- | --- | --- | --- | --- | --- | --- | --- | --- | --- | --- | --- | --- | --- | --- | --- | --- |
| strong activity | 463 ± 224 nM | strong activity | 280 ± 117 nM | 0.258 ± 0.097 µM | 0.258 µM | 0.239 ± 0.072 µM | 4280 ± 1360 nM | – | – | O=C(Nc1ccc(C(F)(F)F)c(C(F)(F)F)c1)c1cc(Cl)ccc1O [B1] | 59.2% | equivalent or improved anti-proliferation potency | – | – | – | – |
| strong activity | 551 ± 173 nM | strong activity | 467 ± 204 nM | 0.0997 ± 0.0221 µM | 0.0991 µM | 0.13 ± 0.033 µM | 2860 ± 950 nM | ~0.1 µM | ~0.1 µM | O=C(Nc1ccc(C(F)(F)F)c(C(F)(F)F)c1)c1cc(F)ccc1O [B9] | 84.3% | equivalent or improved anti-proliferation potency | – | – | – | – |
| strong activity | 498 ± 185 nM | strong activity | 491 ± 156 nM | 0.382 ± 0.078 µM | 0.382 µM | 0.199 ± 0.055 µM | > 10000 nM | – | – | O=C(Nc1ccc(C(F)(F)F)c(C(F)(F)F)c1)c1cc(F)c(F)cc1O [B14] | 47.3% | – | – | – | – | – |

| Structure (SMILES) | downregulating the AR-FL, in words (AR-full length (AR-FL)) | DC50 (AR-full length (AR-FL)) | downregulating the AR-V7, in words (AR-V7 [1]) | DC50 (AR-V7 [1]) | IC50 (22RV1 cells; [4]) | IC50 (22RV1 cells; [5]) | IC50 (LNCaP95 cells; [6]) | DC50 (AR-V7 [2]) | IC50 (22RV1 cells; 22Rv1, antiproliferation, approximate value, read-out: IC50 in 22RV1 (text)) | IC50 (LNCaP95 cells; LNCaP-95, antiproliferation, approximate value, read-out: IC50 in LNCaP95 (text)) | inhibition at 1 µM (22RV1 cells; [3]) | antiproliferative activity, in words (22RV1 cells) | IC50 (22RV1 cells; 22Rv1, 72 h, read-out: IC50 (μM) 22RV1) | inhibition at 1 µM (22RV1 cells; 22Rv1, read-out: Inhibitory Rate 22RV1 @1.0 μM) | IC50 (22RV1 cells; 22Rv1, read-out: Obs pIC50 (converted)) | IC50 (LNCaP95 cells; LNCaP-95, 72 h, read-out: IC50 (μM) LNCaP95) |
| --- | --- | --- | --- | --- | --- | --- | --- | --- | --- | --- | --- | --- | --- | --- | --- | --- |
| N#Cc1ccc(NC(=O)c2cc(Cl)ccc2O)cc1C(F)(F)F [B3] | strong activity | 781 ± 512 nM | strong activity | 850 ± 246 nM | – | – | – | 354 ± 134 nM | – | – | – | – | 0.695 ± 0.246 µM | 34.9% | 0.695 µM | 0.354 ± 0.066 µM |
